From BindingDB's records for doi:10.1016/j.ejmech.2019.05.051 (Zhejiang Academy of Medical Sciences, 2019) come the findings set out here.

The experiment in a line: Inhibition of rat brain cortex AChE using acetylthiocholine iodide as substrate incubated for 15 mins by spectrophotometry.

In the case of `CCN(C)C(=O)Oc1cc(C(C)N2CCN(C)CC2)cc2cccnc12` (stereo not given), the IC50 came out at 54.7 µM.
As for `CC(c1cc(OC(=O)N(C)C)c2ncccc2c1)N(C)C` (stereo not given), the figure is 16.3 µM; as for `CC(c1cc(OC(=O)N2CCCC2)c2ncccc2c1)N1CCOCC1` (stereo not given), 48.6 µM; as for `CCN(C)C(=O)Oc1cc(C(C)N(CC)CC)cc2cccnc12` (stereo not given), 41.2 µM.
The compound `CC(c1cc(OC(=O)N2CCOCC2)c2ncccc2c1)N1CCOCC1` (stereo not given) showed an IC50 of 8.3 µM.
As for `CC(c1cc(OC(=O)N(C)C)c2ncccc2c1)N1CCOCC1` (stereo not given), the figure is 69.9 µM; as for `CCN(CC)C(=O)Oc1cc(C(C)N(C)C)cc2cccnc12` (stereo not given), 13.6 µM.
`CCN(C)C(=O)Oc1cccc([C@H](C)N(C)C)c1` [2,3-dihydroxybutanedioic acid; 3-[(1S)-1-(dimethylamino)ethyl]phenyl N-ethyl-N-methylcarbamate] came in with an IC50 of 9 µM.
`CC(c1cc(OC(=O)N2CCCCC2)c2ncccc2c1)N(C)C` (stereo not given) registered an IC50 of 20.6 µM.
As for `CC(c1cc(OC(=O)N2CCCC2)c2ncccc2c1)N(C)C` (stereo not given), the figure is 28.6 µM.
For `CCN(C)C(=O)Oc1cc(C(C)N2CCCCC2)cc2cccnc12` (stereo not given) the value was 29 µM; for `CC(c1cc(OC(=O)N2CCOCC2)c2ncccc2c1)N(C)C` (stereo not given), 8.8 µM; for `CCN(C)C(=O)Oc1cc(C(C)N2CCCC2)cc2cccnc12` (stereo not given), 18.1 µM.
For `CCN(C)C(=O)Oc1cc(C(C)N(C)CC)cc2cccnc12` (stereo not given) the value was 40.7 µM; for `CCN(C)C(=O)Oc1cc(C(C)N(C)C)cc2cccnc12` (stereo not given), 1.2 µM.
